Drawing on patent US20230104936A1, “TRPML MODULATORS” (Casma Therapeutics, Inc., priority 2019, published 2023), this text covers AC50 for 24 compounds.

This experiment concerns TFEB. In words: TFEB nuclear translocation assay, HeLa wt cells. It counts as cell-based. Conditions: Homo sapiens, HeLa, 2 h, 2 hrs compound treatment, Table 1 does not say HeLa wt or TRPML1 KO. Summed up:
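TFEB translocation into the nucleus of HeLa wt cells is scored by high-content immunofluorescence after 2 hrs of compound treatment at 37° C, reported as AC50.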
For `COc1ccc(S(=O)(=O)Nc2ccccc2N2CCC(O)(c3ccc(F)cn3)CC2)cc1` [Compound A-409, N-{2-[4-(5-fluoropyridin-2-yl)-4-hydroxypiperidin-1-yl]phenyl}-4-methoxybenzene-1-sulfonamide], the concentration at half-maximal activity (AC50) (as a rule, the midpoint of the concentration-response curve, whichever way the signal moves) is not below 10 µM.

Turning to `CC(C)(C)C(=O)N1CCN(c2ccccc2NS(=O)(=O)Cc2ccccc2)CC1` [Compound A-410, N-{2-[4-(2,2-dimethylpropanoyl)piperazin-1-yl]phenyl}-1-phenylmethanesulfonamide], the AC50 lay within 2.01 to 8 µM.

`CN1CC2(CCN(c3ccccc3NS(=O)(=O)c3ccc(S(=O)(=O)N(C)C)cc3)CC2)c2ccncc21` [Compound A-412, N1,N1-dimethyl-N4-(2-{1′-methyl-1′,2′-dihydrospiro[piperidine-4,3′-pyrrolo[2,3-c]pyridin]-1-yl}phenyl)benzene-1,4-disulfonamide] came in with an AC50 not above 2 µM.

For `CC(C)S(=O)(=O)c1ccc(S(=O)(=O)Nc2ccccc2N2CCC(O)(c3ccc(F)cn3)CC2)cc1` [Compound A-413], the AC50 lay in the range of 8.01 to 9.99 µM.

As to `CN(C)S(=O)(=O)c1ccc(S(=O)(=O)Nc2ccccc2N2CCN(c3ccn(C(C)(C)C)n3)CC2)cc1` [Compound A-414, N4-{2-[4-(1-tert-butyl-1H-pyrazol-3-yl)piperazin-1-yl]phenyl}-N1,N1-dimethylbenzene-1,4-disulfonamide], the AC50 is not above 2 µM.

The compound `CN(C)S(=O)(=O)c1ccc(S(=O)(=O)Nc2ccccc2N2CCC(CNC(C)(C)C)CC2)cc1` [Compound A-415, N4-(2-{4-[(tert-butylamino)methyl]piperidin-1-yl}phenyl)-N1,N1-dimethylbenzene-1,4-disulfonamide] returned an AC50 not above 2 µM.

For the compound `C[C@H]1CN(c2ccccc2NS(=O)(=O)c2ccc(S(=O)(=O)N(C)C)cc2)CCN1C(=O)c1cscn1` [Compound A-416, N1,N1-dimethyl-N4-{2-[(3S)-3-methyl-4-(1,3-thiazole-4-carbonyl)piperazin-1-yl]phenyl}benzene-1,4-disulfonamide], the half-maximal activity concentration (AC50) fell in the range of 2.01 to 8 µM.

With `CN1CCN(CCCS(=O)(=O)Nc2ccccc2N2CCN(C(=O)C(C)(C)C)CC2)CC1` [Compound A-417, N-{2-[4-(2,2-dimethylpropanoyl)piperazin-1-yl]phenyl}-3-(4-methylpiperazin-1-yl)propane-1-sulfonamide], the AC50 is 2.01 to 8 µM.

In turn, `COCC(C)N1CCN(c2ccccc2NS(=O)(=O)c2ccc(S(=O)(=O)N(C)C)cc2)CC1` (stereo not drawn) [Compound A-418, N4-{2-[4-(1-methoxypropan-2-yl)piperazin-1-yl]phenyl}-N1,N1-dimethylbenzene-1,4-disulfonamide] returned an AC50 of 2.01 to 8 µM.

Turning to `CN(C)S(=O)(=O)c1ccc(S(=O)(=O)Nc2ccccc2N2CCC(C3CCCO3)CC2)cc1` (stereo not drawn) [Compound A-419, N1,N1-dimethyl-N4-{2-[4-(oxolan-2-yl)piperidin-1-yl]phenyl}benzene-1,4-disulfonamide], the AC50 is not above 2 µM.

With `CN(C)S(=O)(=O)c1ccc(S(=O)(=O)Nc2ccccc2N2CCC(O)(C3CC3)CC2)cc1` [Compound A-420, N4-[2-(4-cyclopropyl-4-hydroxypiperidin-1-yl)phenyl]-N1,N1-dimethylbenzene-1,4-disulfonamide], the half-maximal activity concentration (AC50) lay within 2.01 to 8 µM.

On to `CN(C)S(=O)(=O)c1ccc(S(=O)(=O)Nc2ccccc2N2CCC3(CCOC3)CC2)cc1` [Compound A-422, N1,N1-dimethyl-N4-(2-{2-oxa-8-azaspiro[4.5]decan-8-yl}phenyl)benzene-1,4-disulfonamide], for which the AC50 was not above 2 µM.

`CS(=O)(=O)c1ccc(S(=O)(=O)Nc2ccccc2N2CCC3(CC2)CN(CC2CCOC2)c2cc(F)ccc23)cc1` (stereo not drawn) [Compound A-423, N-(2-{6-fluoro-1-[(oxolan-3-yl)methyl]-1,2-dihydrospiro[indole-3,4′-piperidin]-1′-yl}phenyl)-4-methanesulfonylbenzene-1-sulfonamide] yielded an AC50 not above 2 µM.

In turn, `CNS(=O)(=O)c1ccc(S(=O)(=O)Nc2ccccc2N2CCC(c3ccc(Cl)cc3F)CC2)cc1` [Compound A-424, N1-{2-[4-(4-chloro-2-fluorophenyl)piperidin-1-yl]phenyl}-N4-methylbenzene-1,4-disulfonamide] showed a half-maximal activity concentration (AC50) of 2.01 to 8 µM.

For `CN(C)S(=O)(=O)c1ccc(S(=O)(=O)Nc2ccccc2N2CCN(C(=O)C3(C)CCC3)CC2)cc1` [Compound A-425, N1,N1-dimethyl-N4-{2-[4-(1-methylcyclobutanecarbonyl)piperazin-1-yl]phenyl}benzene-1,4-disulfonamide], the AC50 lay within 2.01 to 8 µM.

The compound `CCC(C)(C)CC(=O)N1CCN(c2ccccc2NS(=O)(=O)c2ccc(S(=O)(=O)N(C)C)cc2)CC1` [Compound A-426, N4-{2-[4-(3,3-dimethylpentanoyl)piperazin-1-yl]phenyl}-N1,N1-dimethylbenzene-1,4-disulfonamide] yielded a concentration at half-maximal activity (AC50) not above 2 µM.

In the case of `CN(C)S(=O)(=O)c1ccc(S(=O)(=O)Nc2ccccc2N2CCN(C(=O)C3CC3(C)C)CC2)cc1` (stereo not drawn) [Compound A-427, N4-{2-[4-(2,2-dimethylcyclopropanecarbonyl)piperazin-1-yl]phenyl}-N1,N1-dimethylbenzene-1,4-disulfonamide], the concentration at half-maximal activity (AC50) was 2.01 to 8 µM.

Take `CC(C(=O)N1CCN(c2ccccc2NS(=O)(=O)c2ccc(S(=O)(=O)N(C)C)cc2)CC1)C(C)(C)C` (stereo not drawn) [Compound A-428, N1,N1-dimethyl-N4-{2-[4-(2,3,3-trimethylbutanoyl)piperazin-1-yl]phenyl}benzene-1,4-disulfonamide]: the AC50 is not above 2 µM.

In turn, `CN(C)S(=O)(=O)c1ccc(S(=O)(=O)Nc2ccccc2N2CCN(C(=O)C3CC(F)(F)C3)CC2)cc1` [Compound A-429, N4-{2-[4-(3,3-difluorocyclobutanecarbonyl)piperazin-1-yl]phenyl}-N1,N1-dimethylbenzene-1,4-disulfonamide] came in with a concentration at half-maximal activity (AC50) of 2.01 to 8 µM.

`CN(C)S(=O)(=O)c1ccc(S(=O)(=O)Nc2ccccc2N2CCN(C(=O)C3(CF)CCC3)CC2)cc1` [Compound A-430, N4-(2-{4-[1-(fluoromethyl)cyclobutanecarbonyl]piperazin-1-yl}phenyl)-N1,N1-dimethylbenzene-1,4-disulfonamide] registered an AC50 of 2.01 to 8 µM.

As for `COC(C)(C)C(=O)N1CCN(c2ccccc2NS(=O)(=O)c2ccc(S(=O)(=O)N(C)C)cc2)CC1` [Compound A-431, N4-{2-[4-(2-methoxy-2-methylpropanoyl)piperazin-1-yl]phenyl}-N1,N1-dimethylbenzene-1,4-disulfonamide], the AC50 lay in the range of 2.01 to 8 µM.

With `CN(C)S(=O)(=O)c1ccc(S(=O)(=O)Nc2ccccc2N2CCN(C(=O)C(C)(C)F)CC2)cc1` [Compound A-432, N4-{2-[4-(2-fluoro-2-methylpropanoyl)piperazin-1-yl]phenyl}-N1,N1-dimethylbenzene-1,4-disulfonamide], the half-maximal activity concentration (AC50) was 2.01 to 8 µM.

For the compound `CN(C)S(=O)(=O)c1ccc(S(=O)(=O)Nc2ccccc2N2CCC(C3(O)CC3)CC2)cc1` [Compound A-433, N4-{2-[4-(1-hydroxycyclopropyl)piperidin-1-yl]phenyl}-N1,N1-dimethylbenzene-1,4-disulfonamide], the concentration at half-maximal activity (AC50) was 2.01 to 8 µM.

The compound `COCC1CCN(c2ccccc2NS(=O)(=O)c2ccc(S(=O)(=O)N(C)C)cc2)CC1` [Compound A-434, N4-{2-[4-(methoxymethyl)piperidin-1-yl]phenyl}-N1,N1-dimethylbenzene-1,4-disulfonamide] showed a half-maximal activity concentration (AC50) not above 2 µM.
